For data set [1], the system named is Mycobacterium tuberculosis. Description: Antitubercular activity against Mycobacterium tuberculosis assessed as reduction in microbial growth by broth dilution method. The format is functional. Background: Broth dilution looks for growth in wells or tubes with falling amounts of substance.
A further data set deals with Mycobacterium marinum. Description: Antitubercular activity against Mycobacterium marinum assessed as reduction in microbial growth by broth dilution method. The class given is functional.
Data set [2] is described as follows: Lipophilicity, log D of the compound at pH 7.4. Conditions: buffer. The format is physicochemical.
Data set [3] can be described thus: Half life in mouse liver microsomes. The format is ADME, Microsome. (Liver microsomes are vesicles of endoplasmic reticulum, rich in cytochrome P450 enzymes.)
The nature of data set [4]: Intrinsic clearance in mouse liver microsomes. The class given is ADME, Microsome. The note with it: read-out: CLH.
Data set [5] in a line: Solubility of the compound at pH 6.5. Conditions: buffer. The format is physicochemical.
A short description of data set [6]: Solubility of the compound at pH 2.0. The class given is physicochemical. The note with it: buffer.

Converted amounts (≈) assume the structure as drawn. A value given as a limit tells only on which side of the number the result lay.

By MIC90 is commonly meant the lowest concentration that inhibits either 90% of growth or 90% of the strains tested, depending on the study. With `CC1CCCCN1C(=O)CS(=O)(=O)c1nnnn1C` (centres undefined), the MIC90 in data set [1] was determined as 3.13 µg/mL; in the data set with Mycobacterium marinum it was 25 µg/mL.
On the same counts, the results for `CC1CCN(C(=O)CS(=O)(=O)c2nnnn2-c2ccccc2)CC1` are 12.5 µg/mL and 100 µg/mL.
On the same counts, the results for `CN(C(=O)CS(=O)(=O)c1nnnn1C)c1ccccc1` are 2.5 µg/mL and 100 µg/mL.
`Cn1nnnc1S(=O)(=O)CC(=O)NC1CCCCC1`: the MIC90 is 6.25 µg/mL in data set [1] and 12.5 µg/mL in the data set with Mycobacterium marinum.
For the compound `Cn1nnnc1S(=O)(=O)CC(=O)N1CCCCCC1`, the MIC90 in data set [1] was found to be 1.25 µg/mL; in the data set with Mycobacterium marinum it was 100 µg/mL.
With `O=C(CS(=O)(=O)c1nnnn1-c1ccccc1)N1CCCCC1`, the MIC90 came to 10 µg/mL in data set [1] and 100 µg/mL in the data set on Mycobacterium marinum.
On the same counts, the results for `CN(C(=O)C[S+]([O-])c1nnnn1-c1ccccc1)c1ccccc1` (centres undefined) are 50 µg/mL and 100 µg/mL.
On the same counts, the results for `O=C(CS(=O)(=O)c1nnc2ncccn12)N1CCN(c2ccccc2)CC1` are greater than 100 µg/mL and greater than 100 µg/mL.
On the same counts, the results for `O=C(CSc1nnnn1-c1ccccc1)N1CCCC1` are 50 µg/mL and 100 µg/mL.
On to `CCN(CC)C(=O)CS(=O)(=O)c1nnnn1-c1ccccc1`, for which the figures for the MIC90 (in data set [1]; with Mycobacterium marinum) were 20 µg/mL and greater than 100 µg/mL, respectively.
For `CN(C(=O)CS(=O)(=O)c1nnnn1-c1ccccc1)c1ccccc1`, the MIC90 came to 10 µg/mL in data set [1] and 50 µg/mL in the data set on Mycobacterium marinum.
On the same counts, the results for `CCC1CCCCN1C(=O)CS(=O)(=O)c1nnnn1C` (centres undefined) are 2.5 µg/mL and 100 µg/mL.
In the case of `CC1CCN(C(=O)C[S+]([O-])c2nnnn2-c2ccccc2)CC1` (centres undefined), the results for the MIC90 (in data set [1]; with Mycobacterium marinum) were 25 µg/mL and 100 µg/mL, respectively.
For the compound `CN(C(=O)CSc1nnnn1-c1ccccc1)c1ccccc1`, the MIC90 (in data set [1]; in the data set with Mycobacterium marinum) was greater than 100 µg/mL in each case.
Turning to `CC1CCCN(C(=O)CS(=O)(=O)c2nnnn2C)C1` (centres undefined), the MIC90 was determined as 6.25 µg/mL in data set [1] and 25 µg/mL with Mycobacterium marinum.
With `CN(C(=O)CS(=O)(=O)c1nc(O)nn1C)c1ccccc1`, the MIC90 (in data set [1]; with Mycobacterium marinum) was greater than 100 µg/mL in each case.
With `CO[C@H]1/C=C/O[C@@]2(C)Oc3c(C)c(O)c4c(O)c(c(/C=N/N5CCN(C)CC5)c(O)c4c3C2=O)NC(=O)/C(C)=C\C=C\[C@H](C)[C@H](O)[C@@H](C)[C@@H](O)[C@@H](C)[C@H](OC(C)=O)[C@@H]1C` [RIFAMPIN], the MIC90 came to 0.06 µg/mL in data set [1] and 0.2 µg/mL in the data set with Mycobacterium marinum.
For `Cn1nnnc1SCC(=O)N1CCCC1`, in that order: greater than 100 µg/mL and greater than 100 µg/mL.
Broadly, the logD is the decadic logarithm of the distribution of all forms, ionised or not, between an organic phase and buffer at a given pH. Read a high logD as a more lipophilic compound. In general, half-life refers to how long it takes for the measured level to halve. The low end stands for rapid decline, the high end for slow decline. By solubility is commonly meant the concentration that dissolves in the medium under given conditions. A higher solubility goes with a readily soluble substance. Regarding `Cn1nnnc1S(=O)(=O)CC(=O)N1CCCCC1`, in data set [2], the logD is 1.6. Moreover, in data set [3], the half-life was 2.93 h. In addition, the MIC90 in data set [1] is 1.56 µg/mL; in the data set with Mycobacterium marinum it was 12.5 µg/mL. In addition, in data set [4], the microsomal CLint turned out to be 10 µL/min/mg. Moreover, the solubility in data set [5] and in data set [6] was greater than 100 mg/mL in each case.
In the case of `O=C(CS(=O)(=O)c1nnnn1-c1ccccc1)N1CCCC1`, the results for the MIC90 (in data set [1]; in the data set with Mycobacterium marinum) were 20 µg/mL and greater than 100 µg/mL, respectively.
For `COc1cccc(-c2n[nH]c(S(=O)(=O)CC(=O)N3CCC(C)CC3)n2)c1`, in that order: greater than 100 µg/mL and greater than 100 µg/mL.
The compound `Cn1nnnc1S(=O)(=O)CC(=O)N1CCN(c2ccccc2)CC1` yielded a logD in data set [2] of 4.8. Besides, in data set [3], the half-life came out at 0.333 h. Besides, the MIC90 in data set [1] was 1.25 µg/mL; in the data set on Mycobacterium marinum, 10 µg/mL. Further, in data set [4], the microsomal CLint was 85 µL/min/mg. For the same compound, the solubility in data set [5] amounted to 25 mg/mL (≈ 71.3 mM); in data set [6], 50 mg/mL (≈ 143 mM).
Take `Cn1nnnc1SCC(=O)N1CCCCC1`: the MIC90 (in data set [1]; in the data set on Mycobacterium marinum) was greater than 100 µg/mL each time.
`CCN(CC)C(=O)CS(=O)(=O)c1nnnn1C`: the MIC90 in data set [1] stood at 10 µg/mL; in the data set on Mycobacterium marinum, 100 µg/mL.
For `O=C(CS(=O)(=O)c1nnnn1-c1ccccc1)NC1CCCCC1`, in that order: 100 µg/mL and 100 µg/mL.
On the same counts, the results for `CC1CCN(C(=O)CS(=O)(=O)c2nnnn2C)CC1` are 1.56 µg/mL and 12.5 µg/mL.
On the same counts, the results for `CC1CCN(C(=O)CSc2nnnn2-c2ccccc2)CC1` are greater than 50 µg/mL and greater than 100 µg/mL.
For `CC1CCCCN1C(=O)CS(=O)(=O)c1nnnn1-c1ccccc1` (centres undefined), the MIC90 is 12.5 µg/mL in data set [1] and 100 µg/mL in the data set with Mycobacterium marinum.
On the same counts, the results for `Cn1nnnc1S(=O)(=O)CC(=O)N1CCCC1` are 6.25 µg/mL and 12.5 µg/mL.
For `O=C(CS(=O)(=O)c1nnc2ncccn12)N1CCCCC1`, in that order: greater than 100 µg/mL and greater than 100 µg/mL.
For `CC1CCN(C(=O)CS(=O)(=O)c2nc(-c3ccc(Cl)cc3)n[nH]2)CC1`, in that order: greater than 100 µg/mL and greater than 100 µg/mL.
`O=C(CS(=O)(=O)c1nnnn1-c1ccccc1)N1CCN(c2ccccc2)CC1`: the MIC90 in data set [1] was found to be 10 µg/mL; with Mycobacterium marinum, 100 µg/mL.

For the origin of these results see ChEMBL document CHEMBL5365404, “Synthesis and biological evaluation of 2-(Tetrazol-5-yl)sulfonylacetamides as inhibitors of Mycobacterium tuberculosis and Mycobacterium marinum” (Bioorg Med Chem Lett, 2023).
